The values below come from article PMC7502707, “Characterization and validation of a preventative therapy for hypertrophic cardiomyopathy in a murine model of the disease” (Proceedings of the National Academy of Sciences of the …, 2020).

In the assay the test system is wt and cTnI-G203S cardiac myocytes. Briefly: Mitochondrial membrane potential (JC-1) after in vitro peptide exposure. It counts as cell-based, mouse. Conditions: 10 μM BayK(−), calcium-free HBS. The protocol: Fluorescence was measured on a Hamamatsu Orca ER digital camera attached to an inverted Nikon TE2000-U microscope. Fluorescent indicator 5,5′,6,6′-tetrachloro-1,1′,3,3′-tetraethylbenzimidazolylcarbocyanine iodide was used to measure Ψm in cardiac myocytes, as previously described (JC-1, Molecular Probes) ([61]). Autofluorescence was used to measure flavoprotein oxidation in cardiac myocytes based on previously described methods ([13], [29], [62]). Responses to drugs were reported as a percentage increase from the basal average. Detailed methods are provided in SI Appendix.
Supporting Materials and Methods
Isolation of ventricular myocytes
Myocytes were isolated from wt and cTnI-G203S mice. Animals were anesthetized with pentobarbitone sodium (240 mg/kg) via intraperitoneal injection prior to excision of the heart. Cells were isolated as previously described (1-3). Mouse hearts were excised, cannulated onto a Langendorff apparatus via the aorta, and perfused with Krebs-Henseleit Buffer (KHB) containing […]
O2/CO2 at 37°C) for 4 min at 37°C. Hearts were then perfused with KHB supplemented with 2.4 mg/ml collagenase B for 3 min, followed by a further 8 min perfusion in the presence of 40 μM calcium. Following perfusion, aorta and atria were removed then ventricles teased apart and triturated to dissociate myocytes into suspension. Myocyte suspension was spun at 500 RPM for 3 min, supernatant discarded, and myocytes resuspended in calcium free Hepes-Buffered Solution […]
Hepes and 2 glutamine (pH = 7.4 at 37°C) in the presence or absence of 3 mM EGTA (for 0 mM calcium experiments). For calcium containing experiments, calcium was titrated back to achieve a final extracellular concentration of 1.8 mM. […]
Axopatch 200B voltage-clamp amplifier (Molecular Devices) with a Digidata 1440A interface and pClamp10.5 software (Molecular Devices). A Ag/AgCl electrode was used to ground the bath. Once the whole-cell configuration was achieved, the holding potential was set at –80 mV. […]
For calcium transient studies, microelectrodes contained (in mM): KCl 20, NaCl 10, MgCl2 2, CaCl2 0.03, potassium L-glutamate 120, EGTA 0.1, HEPES 5 and MgATP 5 (pH adjusted to 7.2 at 37°C with NaOH) supplemented with 2 µM Fura-2 AM (Fura-2, Molecular Probes, Eugene, Oregon). […]
NaCl 140, KCl 5.4, CaCl2 1, MgCl2 0.5, HEPES 5.5 and glucose 11 (pH adjusted to 7.6 with NaOH), […]
Fluorescence was measured on a Hamamatsu Orca ER digital camera attached to an inverted Nikon TE2000-U microscope. […]
Additionally, individual 580 nm and 535 nm wavelength signals were assessed in each experiment to determine whether the fluorescent indicator was accurately measuring Ψm. […] Ratiometric JC-1 or flavoprotein fluorescent signals were quantified by manually tracing myocytes and subtracting an equivalent background region […]

As for QQLEEDLKGYLDWITQAE [AID-TAT], the “increase in Ψm (JC-1) in response to BayK(−)” value is “attenuated the response” (cTnI-G203S myocytes, 1 μM peptide in vitro); “significantly attenuated the response” (cTnI-G203S myocytes, 10 μM peptide in vitro); “attenuated the response in cTnI-G203S but not wt myocytes” (wt myocytes, 1 μM peptide in vitro); “significantly attenuated the response” (wt myocytes, 10 μM peptide in vitro).
